The record followed here is paper PMC10556625 (Proceedings of the National Academy of Sciences of the …, 2023).

In the data set the test system is HeLa cells.

In general, EC50 refers to the midpoint of the concentration-response curve. Lower therefore signals a more potent agent. Consider `N#Cc1c(-n2c(Br)c(Br)c3cc(Br)ccc32)[nH]c2c(Br)cc(Br)cc12` [AETX, aetokthonotoxin], for which the “Cytotoxicity EC50 on HeLa cells converted to mass concentration” value was 0.65 µg/mL and the EC50 came to 1000 nM.
